What was measured:
Type in all cases: cell-based
[1] = target: T1, CHRM2 (Homo sapiens, UniProt P08172); assay: IC50 antagonist activity screen, PathHunter β-Arrestin, CHRM2; settings: maximum of IC50 curve
T1 sequence (P08172 1-466): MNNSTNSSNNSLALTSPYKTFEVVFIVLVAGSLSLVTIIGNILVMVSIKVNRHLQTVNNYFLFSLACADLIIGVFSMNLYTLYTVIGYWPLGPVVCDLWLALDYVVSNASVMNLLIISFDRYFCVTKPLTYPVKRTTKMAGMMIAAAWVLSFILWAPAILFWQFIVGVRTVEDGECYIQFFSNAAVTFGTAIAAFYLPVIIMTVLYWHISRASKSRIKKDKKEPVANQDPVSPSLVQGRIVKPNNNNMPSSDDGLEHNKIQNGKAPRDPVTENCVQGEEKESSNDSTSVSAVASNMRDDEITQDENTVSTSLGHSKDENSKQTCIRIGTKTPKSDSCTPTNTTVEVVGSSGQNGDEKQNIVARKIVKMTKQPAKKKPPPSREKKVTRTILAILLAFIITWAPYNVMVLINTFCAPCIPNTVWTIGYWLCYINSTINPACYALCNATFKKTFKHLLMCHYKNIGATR
Description: (§1) In each of the antagonist assays, PathHunter® cell lines were removed from a freezer stock and seeded at a volume of 20 μL into white walled, 384-well microplates and incubated at 37° C. Each cell was pre-incubated with an antagonist followed by an agonist challenge at the EC80 concentration. Cells were then diluted to generate a 5× sample in assay buffer. 5 μL of the 5× sample was then added to cells and incubated at 37° C. for 30 minutes. Finally, 5 μL of 6×EC80 agonist in assay buffer were added to the cells and incubated at 37° C. for 90 minutes or 180 minutes. The assay signal was generated through addition of 12.5 μL or 15 μL (50% V/V) of a detection reagent cocktail followed by a one hour incubation time at room temperature. Microplates were read following signal generation with a PerkinElmer Envision™ (PerkinElmer Inc., Waltham, Mass.) for chemiluminescent signal detection. Reactivity was analyzed using the CBIS data analysis suite (ChemInnovation, CA) where RLU refers to the raw measured values. The percent inhibition was calculated using the formula: % Inhibition=100%*(1−mean RLU of test sample−mean RLU of control)/(mean RLU of EC80 control−mean RLU of vehicle control).
(§2) IC50 curves were measured using the same GPCR assay, PathHunter® β-Arrestin from Eurofins DiscoverX Products (Fremont, Calif.), as the GPCR reactivity screen. As used herein, strong activity against a receptor is considered a maximum activity of about 42% or higher. Higher results for antagonism against CHRM2, EDGE, and MRGPRX2 are considered better. It is further considered better when a cannabinoid inhibits more than one of the receptors.

[2] = target: T1, CHRM2; assay: GPCR reactivity screen, PathHunter β-Arrestin, antagonist assay CHRM2; settings: for antagonist activity against CHRM2 (in words): GPCR reactivity screen; for CHRM2 (Antagonist) percent inhibition: antagonist mode, agonist challenge at EC80
Description: (§3) To evaluate the role specific cannabinoid compounds play in the neurological signaling pathway for itching, a GPCR reactivity assay was performed to determine the reactivity of 19 cannabinoid compounds to each of CHRM2, EDG3, and MRGPRX2. The evaluated cannabinoid compounds were: CBN, THCV, CBDVA, CBG, CBL, CBC, CBDV, CBDA, CBD, CBGA, (+)-CBD, CBG-C4, CBD-C1, CBD-C2, CBGV, CBGA-C4, CBGVA, CBCA, and CBLA. Acetylcholine was used as the control for CHRM2, sphingosine-1-phosphate was used as the control for EDG3; and cortistatin 14 was used as the control for MRGPRX2.
as §1
(§4) As used herein, strong activity against a receptor is considered a percent activity of about 42% or higher. Higher results for antagonism against CHRM2, EDGE, and MRGPRX2 are considered better. It is further considered better when a cannabinoid inhibits more than one of the receptors.

[3] = target: T1, CHRM2; assay: GPCR reactivity screen, PathHunter β-Arrestin, agonist assay CHRM2; set-up: concentration or dose not given beside the values; settings: agonist mode; control acetylcholine
Description: as §3
(§5) A total of six assays were run. Specifically, agonist and antagonist assays were run for each of CHRM2, EDG3, and MRGPRX2. In each of the three agonist assays, PathHunter® cell lines were removed from a freezer stock and seeded at a volume of 20 μL into white walled, 384-well microplates and incubated at 37° C. Each cell was incubated with a sample to induce a response and then diluted to generate a 5× sample in assay buffer. 5 μL of the 5× sample was then added to cells and incubated at 37° C. for 90 or 180 minutes. The final assay concentration was 1%. The assay signal was generated through addition of 12.5 μL or 15 μL (50% V/V) of a detection reagent cocktail followed by a one hour incubation time at room temperature. Microplates were read following signal generation with a PerkinElmer Envision™ (PerkinElmer Inc., Waltham, Mass.) for chemiluminescent signal detection. Reactivity was analyzed using the CBIS data analysis suite (ChemInnovation, CA) where RLU refers to the raw measured values. The percent activity was then calculated using the formula: % Activity=100%*(mean RLU of test sample−mean RLU of control)/(mean max control ligand−mean RLU of vehicle control).
as §4

[4] = target: T2, MRGPRX2 (Homo sapiens, UniProt Q96LB1); assay: IC50 antagonist activity screen, PathHunter β-Arrestin, MRGPRX2; settings: maximum of IC50 curve
T2 sequence (Q96LB1 1-330): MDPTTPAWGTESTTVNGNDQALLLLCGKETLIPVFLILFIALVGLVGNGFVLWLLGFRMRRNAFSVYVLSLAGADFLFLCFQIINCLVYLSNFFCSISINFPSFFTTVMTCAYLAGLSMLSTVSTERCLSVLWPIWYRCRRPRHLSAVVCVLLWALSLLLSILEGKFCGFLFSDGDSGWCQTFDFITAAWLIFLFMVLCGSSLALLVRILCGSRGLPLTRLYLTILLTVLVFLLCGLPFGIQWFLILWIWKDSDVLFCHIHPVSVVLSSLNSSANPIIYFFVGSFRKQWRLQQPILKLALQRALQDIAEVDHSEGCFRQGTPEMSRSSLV
Description: as §1, §2

[5] = target: T3, EDG3 (Homo sapiens, UniProt Q99500); assay: GPCR reactivity screen, PathHunter β-Arrestin, antagonist assay EDG3; settings: for antagonist activity against EDG3 (in words): GPCR reactivity screen; for EDG3 (Antagonist) percent inhibition: antagonist mode, agonist challenge at EC80
T3 sequence (Q99500 whole entry): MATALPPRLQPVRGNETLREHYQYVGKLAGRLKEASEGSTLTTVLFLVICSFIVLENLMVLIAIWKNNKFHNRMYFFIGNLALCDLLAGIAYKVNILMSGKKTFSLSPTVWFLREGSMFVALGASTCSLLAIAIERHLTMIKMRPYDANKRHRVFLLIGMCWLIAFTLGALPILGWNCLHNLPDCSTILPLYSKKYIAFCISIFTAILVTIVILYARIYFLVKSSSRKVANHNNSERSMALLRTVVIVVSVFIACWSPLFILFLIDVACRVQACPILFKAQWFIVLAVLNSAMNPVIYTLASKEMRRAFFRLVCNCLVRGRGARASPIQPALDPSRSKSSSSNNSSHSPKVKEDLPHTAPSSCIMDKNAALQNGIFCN
Description: as §3, §1, §4

[6] = target: T2, MRGPRX2; assay: GPCR reactivity screen, PathHunter β-Arrestin, antagonist assay MRGPRX2; settings: for antagonist activity against MRGPRX2 (in words): GPCR reactivity screen; for MRGPRX2 (Antagonist) percent inhibition: antagonist mode, agonist challenge at EC80
Description: as §3, §1, §4

[7] = target: T3, EDG3; assay: GPCR reactivity screen, PathHunter β-Arrestin, agonist assay EDG3; set-up: concentration or dose not given beside the values; settings: agonist mode; control sphingosine-1-phosphate
Description: as §3, §5, §4

[8] = target: T2, MRGPRX2; assay: GPCR reactivity screen, PathHunter β-Arrestin, agonist assay MRGPRX2; settings: agonist mode; control cortistatin 14
Description: as §3, §5, §4

[9] = target: T3, EDG3; assay: IC50 antagonist activity screen, PathHunter β-Arrestin, EDG3; settings: maximum of IC50 curve
Description: as §1, §2

Row | Compound | maximum inhibition (antagonism) CHRM2 [1] | antagonist activity against CHRM2 (in words) [2] | CHRM2 (Antagonist) percent inhibition [2] | CHRM2 (Agonist) percent activity [3] | maximum inhibition (antagonism) MRGPRX2 [4] | antagonist activity against EDG3 (in words) [5] | EDG3 (Antagonist) percent inhibition [5] | antagonist activity against MRGPRX2 (in words) [6] | MRGPRX2 (Antagonist) percent inhibition [6] | EDG3 (Agonist) percent activity [7] | MRGPRX2 (Agonist) percent activity [8] | maximum inhibition (antagonism) EDG3 [9]
1 | CCCCCc1cc(O)c2c(c1)OC(C)(CCC=C(C)C)C=C2 (stereo not drawn) [CBC, cannabichromene] | 85% | strong to moderate antagonist activity | 89% | 12% | 91% | strong to moderate antagonist activity | 48% | strong to moderate antagonist activity | 89% | −1% | 9% | 43%
2 | C=C(C)[C@@H]1CCC(C)=C[C@H]1c1c(O)cc(CCCCC)cc1O [CBD, cannabidol] | 75% | antagonist activity | 81% | 12% | 96% | – | 35% | antagonist activity | 85% | 2% | 11% | 30%
3 | CCCCCc1cc(O)c(C/C=C(\C)CCC=C(C)C)c(O)c1 [CBG, cannabigerol] | 13% | – | 20% | 0% | 92% | – | 42% | antagonist activity | 96% | 8% | 2% | 36%
4 | (+)-cannabidiol [(+)-CBD] | 62% | strong to moderate antagonist activity | 67% | 7% | 94% | strong to moderate antagonist activity | 55% | strong to moderate antagonist activity | 92% | 21% | 9% | 24%

From patent US20230000936A1, “A[…] ITCHING […] C[…]” (Demetrix, Inc., priority 2021, published 2023)
